Experimental data published in the supplement of paper PMC8882468.

Tests used:
Experiment in all cases: CTG-3D luminescence at 96 h relative to day-0 seeding control (ratio to day 0); higher = more growth / less cytotoxicity; PDxO 3D drug screen (set 2), 96 h, CTG-3D normalised to day-0 seeding control.
[1] = test system: HCI-001 (organoid from a triple-negative breast cancer xenograft)
[2] = test system: HCI-027 (organoid from a triple-negative breast cancer xenograft)
[3] = test system: HCI-023 (organoid from a triple-negative breast cancer xenograft)
[4] = test system: HCI-015 (organoid from a triple-negative breast cancer xenograft)
[5] = test system: HCI-002 (organoid from a triple-negative breast cancer xenograft)

Nc1cc(C(F)(F)F)c(-c2cc(N3CCOCC3)nc(N3CCOCC3)n2)cn1 [buparlisib]
CTG-3D luminescence at 96 h
Details	12.5 pM	0.00025 µM	0.005 µM	0.1 µM	1 µM	10 µM	100 µM	625 fM
[1], days in culture: 365	3.09	2.29	2.5	3.19	1.82	0.687	0.646	1.89
[1], days in culture: 397	1.95	2.38	2.48	2.22	1.46	0.715	0.507	1.44
[1], days in culture: 401	1.47	1.87	1.41	1.86	1.11	0.572	0.512	1.76
[2], days in culture: 145	1.54	1.52	1.25	1.43	0.692	0.328	0.299	2.3
[2], days in culture: 158	2.38	2.8	2.6	2.57	0.949	0.818	0.172	2.61
[2], days in culture: 164	1.85	1.65	1.59	2.16	0.625	0.478	0.612	1.57
[2], days in culture: 176	4.08	3.24	0.833	1.54	0.26	0.384	0.144	2.31
[2], days in culture: 186	1.86	1.61	2.44	1.65	0.528	0.223	0.169	2.21
[3], days in culture: 223	2.1	2.58	1.97	2.26	0.929	0.895	1.04	2.64
[3], days in culture: 238	1.41	1.77	1.57	1.4	1.23	0.672	0.628	1.46
[3], days in culture: 252	2.06	2.07	1.65	2.23	1.58	0.8	0.794	2.06
[4], days in culture: 333	2.29	1.36	1.57	1.43	0.645	0.204	0.269	1.16
[4], days in culture: 355	1.31	3.75	1.42	1.76	0.946	0.466	0.46	2.06
[4], days in culture: 369	1.92	1.66	2.47	1.92	0.94	0.378	0.599	1.66
[5], days in culture: 127	2.59	2.87	2.94	3.16	2.14	0.496	0.461	2.98
[5], days in culture: 155	5.8	5.75	6.05	5.13	3.11	0.466	0.411	4.41
[5], days in culture: 168	3.25	3.53	3.92	2.96	2.25	0.309	0.241	4.04

CO[C@H]1C[C@@H]2CC[C@@H](C)[C@@](O)(O2)C(=O)C(=O)N2CCCC[C@H]2C(=O)O[C@H]([C@H](C)C[C@@H]2CC[C@@H](OCCO)[C@H](OC)C2)CC(=O)[C@H](C)/C=C(\C)[C@@H](O)[C@@H](OC)C(=O)[C@H](C)C[C@H](C)/C=C/C=C/C=C/1C [everolimus]
CTG-3D luminescence at 96 h
Details	12.5 pM	0.00025 µM	0.005 µM	0.1 µM	1 µM	10 µM	100 µM	625 fM
[1], days in culture: 365	1.99	1.3	1.52	1.53	1.65	1.34	0.0033	1.24
[1], days in culture: 397	1.23	1.76	1.92	1.59	1.16	1.33	-0.000266	0.913
[1], days in culture: 401	1.21	1.26	1.27	1.07	1.1	1.27	-0.00223	1.41
[2], days in culture: 145	1.16	1.53	1.5	1.39	1.19	0.742	-0.00159	1.87
[2], days in culture: 158	1.27	1.84	2.74	2.29	2.53	0.866	-0.00155	5.49
[2], days in culture: 164	2.66	1.52	1.32	1.43	0.817	0.404	0.000466	2.04
[2], days in culture: 176	2.43	2.12	1.35	1.31	1.44	0.309	0.000718	2.75
[2], days in culture: 186	1.24	1.55	2.18	1.05	0.291	0.288	0.00707	3.1
[3], days in culture: 223	2.04	1.82	1.17	1.19	0.991	1.28	-0.00123	1.43
[3], days in culture: 238	1.22	1.01	1	1.23	1.61	0.915	-0.00183	1.32
[3], days in culture: 252	1.97	1.75	1.51	1.44	1.55	1.91	-0.00273	1.89
[4], days in culture: 333	1.5	1.05	0.891	0.744	0.932	0.782	0.00101	1.51
[4], days in culture: 355	2.02	1.85	1.47	1.79	0.526	0.358	-0.00285	1.7
[4], days in culture: 369	1.97	1.19	1.91	1.52	1.84	1.12	-0.00186	1.61
[5], days in culture: 127	1.87	2.27	2.16	2.43	2.17	2.2	-0.00603	2.25
[5], days in culture: 155	3.94	3.58	4.06	4.09	2.96	2.78	-0.00382	3.53
[5], days in culture: 168	3.61	3.15	3.32	2.37	2.67	2.73	-0.000729	3.88

CO[C@H]1C[C@@H]2CC[C@@H](C)[C@@](O)(O2)C(=O)C(=O)N2CCCC[C@H]2C(=O)O[C@H]([C@H](C)C[C@@H]2CC[C@@H](O)[C@H](OC)C2)CC(=O)[C@H](C)/C=C(\C)[C@@H](O)[C@@H](OC)C(=O)[C@H](C)C[C@H](C)/C=C/C=C/C=C/1C [rapamycin]
CTG-3D luminescence at 96 h
Details	12.5 pM	0.00025 µM	0.005 µM	0.1 µM	1 µM	10 µM	100 µM	625 fM
[1], days in culture: 365	2.01	1.51	1.8	1.8	1.28	1.67	0.0179	1.4
[1], days in culture: 397	1.46	1.71	1.53	1.84	1.22	1.87	0.017	1.1
[1], days in culture: 401	1.07	1.45	1.1	1.26	0.98	1.23	0.00642	0.961
[2], days in culture: 145	1.48	1.37	1.25	1.15	1.16	0.781	0.00647	1.5
[2], days in culture: 158	1.19	1.63	1.42	2.35	1.1	2.43	0.0139	4.51
[2], days in culture: 164	3.14	1.63	2.5	1.4	1.59	1.86	0.0163	1.82
[2], days in culture: 176	3.28	2.48	0.934	2.11	1.69	1.25	0.00482	2.21
[2], days in culture: 186	1.07	0.887	1.74	1.07	0.381	1.97	0.00722	0.992
[3], days in culture: 223	1.62	1.63	1.09	1.99	0.95	1.49	0.0136	2.02
[3], days in culture: 238	1.36	1.16	0.919	1.42	1.46	1.5	0.0105	1.26
[3], days in culture: 252	1.76	1.4	1.31	1.72	1.32	1.8	0.00661	1.58
[4], days in culture: 333	1.29	0.897	0.593	1.1	0.612	0.447	0.0119	1.04
[4], days in culture: 355	1.27	2.02	0.979	1.55	1.15	1.05	0.0149	1.06
[4], days in culture: 369	1.79	1.03	1.2	1.39	1.48	0.955	0.00715	1.62
[5], days in culture: 127	1.89	1.99	1.94	2.24	1.85	2.01	0.0264	2.17
[5], days in culture: 155	3.33	3.32	3.3	3.82	2.76	2.89	0.0206	3.05
[5], days in culture: 168	2.98	2.48	2.66	2.27	2.64	2.56	0.0148	3.57
